From US9012431B2, “Boron-containing small molecules as anti-inflammatory agents” (Anacor Pharmaceuticals, Inc., priority 2008, dated 2015)
Where two headings read alike, the source gives them in different places.

Tests used:
[1] = target: T1, PDE1A3 (Homo sapiens, UniProt P54750); assay: PDE1 inhibition; assay type: biochemical; details: standard: 8-methoxymethyl-IBMX
T1 construct: made in house; host or cells: baculoviral expression system

[2] = target: T2, PDE7A1 (Homo sapiens, UniProt Q13946); assay: PDE7 inhibition; assay type: biochemical; details: standard: BRL-50481; read-out: IC50 PDE7A1
T2 construct: made in house; host or cells: baculoviral expression system

[3] = test system: CD-1 (Crl.) derived male mice; assay: Phorbol Ester Induced Mouse Ear Edema Model; assay type: in vivo; details: topical, 6 h; for inhibition in vivo at 1 mg: 1 mg/ear × 2 topical
Method in brief: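 Test compounds in acetone:ethanol 1:1 were applied topically to both ears 30 min before and 15 min after PMA challenge; dexamethasone positive control followed the same schedule. Ear thickness was measured by micrometer 6 h after PMA, and percent inhibition was calculated from ear-thickness increase versus vehicle controls.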

[4] = test system: BALB/c male mice; assay: Oxazolone Induced Mouse Ear Edema Model; assay type: in vivo
Method: 2. In Vivo Anti-Inflammation Activity in Oxazolone Induced Mouse Ear Edema Model
Groups of 5 BALB/c male mice weighing 23±2 g were used. The preshaved abdomens of test animals were sensitized by application of 100 μl, of 1.5% oxazolone solution dissolved in acetone. Seven days after the initial sensitization, test substances, as well as vehicle (acetone:ethanol/1:1, 20 μL/ear) were each administered topically to the anterior and posterior surfaces of the right ear 30 minutes before, and 15 minutes after, challenge by a second application of oxazolone (1% in acetone, […]) via topical route. As a positive control, indomethacin (0.3 mg/ear×2) was administered topically using the same treatment regime as for the test compounds. Twenty-four hours after the second application of oxazolone, the ear thickness of each mouse was measured with a Dyer model micrometer gauge. A 30 percent or more inhibition in ear swelling relative to the vehicle control was considered significant and indicated possible anti-inflammatory activity.

[5] = target: hERG-channel (Homo sapiens, UniProt Q12809); assay: hERG-channel block; assay type: biochemical; details: in vitro screening
[6] = test system: TNF-α secretion from peripheral blood mononuclear cells (PBMCs); assay: TNF-α secretion from PBMCs stimulated by LPS; assay type: cell-based, human; details: PBMC
Source text: (§1) Compounds were screened by a biochemical assay against PDE4 enzyme and cell-based cytokine release assays using PBMCs stimulated by LPS or phytohemagglutinin (PHA).

[7] = test system: IL-2 secretion from PBMCs; assay: IL-2 secretion from PBMCs stimulated with PHA; assay type: cell-based, human; details: PBMC
Source text: as §1

[8] = test system: IFN-γ secretion from PBMCs; assay: IFN-γ secretion from PBMCs stimulated with PHA; assay type: cell-based, human; details: PBMC
Source text: as §1

[9] = test system: T3, phosphodiesterase 4 (PDE4) enzyme derived from human U937 cells; assay: PDE4 enzyme activity (enzyme derived from human U937 cells); assay type: biochemical; details: biochemical assay, PDE4 enzyme derived from human U937 cells; read-out: PDE4 IC50
T3 construct: PDE4 IC50; other: biochemical assay, PDE4 enzyme derived from human U937 cells; other: PDE4 in human U937 cells
Source text: The structure-activity relationships of novel boron-containing anti-inflammatory agents was investigated.
as §1

[10] = test system: PMA induced ear edema; assay: PMA induced ear edema (acute skin irritation model); assay type: in vivo; details: for inhibition of PMA induced ear edema: acetone/ethanol vehicle, 5% C27, 15% dexamethasone, p<0.01
[11] = test system: oxazolone induced ear swelling; assay: Oxazolone induced ear swelling (allergic contact dermatitis model); assay type: in vivo; details: topical
[12] = test system: p450 enzyme; assay: p450 enzyme inhibition screen; assay type: in vitro ADME; details: in vitro screening
[13] = Pharmacokinetic analysis in the rat; assay type: in vivo
[14] = Dermal application on the Göttingen minipig (plasma level, dermal irritation); assay type: in vivo; details: Göttingen, minipig, plasma, topical, 5 % ointment or cream over 15% body surface area; dermal 5% C27 ointment or cream over 15% body surface area; LLOQ=0.01 μg/ml; read-out: plasma levels of the compound
[15] = test system: Göttingen minipig; assay: as above; assay type: in vivo; details: 5% C27 ointment or cream, after 24 hours of exposure
[16] = test system: L929; assay: Cytotoxicity against L929 cell line; assay type: cell-based
[17] = test system: HepG2; assay: Cytotoxicity against HepG2 cell line; assay type: cell-based
[18] = in vivo; details: shrew
[19] = test system: IL-1β production by human PBMCs; assay: IL-1β production by LPS- or PHA-stimulated PBMCs; assay type: cell-based; details: PBMC; LPS- and PHA-induced cytokine production by human PBMCs; read-out: IC50 IL-1β (pro-inflammatory cytokines)
[20] = test system: IL-5 production by human PBMCs; assay: IL-5 production by LPS- or PHA-stimulated PBMCs; assay type: cell-based; details: PBMC; LPS- and PHA-induced cytokine production by human PBMCs; read-out: IC50 IL-5 (Th2 cytokines)
[21] = test system: IL-10 production by human PBMCs; assay: IL-10 production by LPS- or PHA-stimulated PBMCs; assay type: cell-based; details: PBMC; LPS- and PHA-induced cytokine production by human PBMCs; read-out: IC50 IL-10 (Th2 cytokines)
[22] = test system: T4, PDE3 Cat; assay: PDE3 inhibition; assay type: biochemical; details: standard: Cilostazol
T4 construct: Recombinant human PDE enzymes were expressed in a baculoviral system.; PDE isoforms tested include

[23] = test system: TNF-α; assay: Cytokine assay, TNF-α release from PBMC; assay type: cell-based; details: Homo sapiens, PBMC, 24 h, 1 μg/mL LPS, supernatant at 24 hours
Method in brief: (§2)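 Inhibition of cytokine release was assessed in thawed human PBMC cultured in RPMI 1640 plus 10% FBS, with compound tested at four concentrations from 0.01 to 10 μM.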

[24] = test system: IL-2; assay: Cytokine assay, IL-2 release from PBMC; assay type: cell-based; details: human PBMC, 20 ug/mL PHA, supernatant at 24 hours
Method in brief: as §2

[25] = test system: IFN-γ; assay: Cytokine assay, IFN-γ release from PBMC; assay type: cell-based; details: human PBMC, 20 ug/mL PHA, supernatant at 24 hours
Method in brief: as §2

[26] = test system: T5, PDE4 partially purified from human U-937 myeloid leukemia cells; assay: PDE4 Assay (enzyme from U-937 cells, [3H]cAMP); assay type: biochemical; details: PDE4 from U-937 cells, Tris buffer pH 7.5, 20 minutes at 25° C.
T5 construct: PDE4 partially purified from human U-937 myeloid leukemia cells was used

[27] = test system: IL-5; assay: Cytokine assay, IL-5 release from PBMC; assay type: cell-based; details: human PBMC, 20 ug/mL PHA, supernatant at 48 hours
Method in brief: as §2

[28] = test system: IL-10; assay: Cytokine assay, IL-10 release from PBMC; assay type: cell-based; details: human PBMC, 20 ug/mL PHA, supernatant at 48 hours
Method in brief: as §2

[29] = vehicle not given, ear swelling 6 hours after PMA
[30] = LPS- and PHA-induced cytokine production by human PBMCs, read-out: IC50 TNFα (pro-inflammatory cytokines)
[31] = LPS- and PHA-induced cytokine production by human PBMCs, read-out: IC50 IL-2 (Th1 cytokines)
[32] = LPS- and PHA-induced cytokine production by human PBMCs, read-out: IC50 IFNg (Th1 cytokines)

T2 sequence (Q13946 whole entry): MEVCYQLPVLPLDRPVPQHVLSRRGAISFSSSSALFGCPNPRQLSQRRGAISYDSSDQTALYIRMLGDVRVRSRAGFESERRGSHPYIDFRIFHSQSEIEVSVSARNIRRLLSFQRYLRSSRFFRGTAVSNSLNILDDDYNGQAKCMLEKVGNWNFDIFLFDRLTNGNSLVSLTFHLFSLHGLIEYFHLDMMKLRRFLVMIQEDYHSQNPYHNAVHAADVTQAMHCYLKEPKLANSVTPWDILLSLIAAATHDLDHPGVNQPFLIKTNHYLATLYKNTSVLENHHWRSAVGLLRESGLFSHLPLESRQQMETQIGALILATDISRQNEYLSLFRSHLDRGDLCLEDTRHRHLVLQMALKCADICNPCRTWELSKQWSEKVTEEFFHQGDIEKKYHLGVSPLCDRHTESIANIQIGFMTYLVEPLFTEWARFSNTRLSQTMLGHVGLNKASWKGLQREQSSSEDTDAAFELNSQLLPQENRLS
Sequence of hERG-channel (Q12809 whole entry): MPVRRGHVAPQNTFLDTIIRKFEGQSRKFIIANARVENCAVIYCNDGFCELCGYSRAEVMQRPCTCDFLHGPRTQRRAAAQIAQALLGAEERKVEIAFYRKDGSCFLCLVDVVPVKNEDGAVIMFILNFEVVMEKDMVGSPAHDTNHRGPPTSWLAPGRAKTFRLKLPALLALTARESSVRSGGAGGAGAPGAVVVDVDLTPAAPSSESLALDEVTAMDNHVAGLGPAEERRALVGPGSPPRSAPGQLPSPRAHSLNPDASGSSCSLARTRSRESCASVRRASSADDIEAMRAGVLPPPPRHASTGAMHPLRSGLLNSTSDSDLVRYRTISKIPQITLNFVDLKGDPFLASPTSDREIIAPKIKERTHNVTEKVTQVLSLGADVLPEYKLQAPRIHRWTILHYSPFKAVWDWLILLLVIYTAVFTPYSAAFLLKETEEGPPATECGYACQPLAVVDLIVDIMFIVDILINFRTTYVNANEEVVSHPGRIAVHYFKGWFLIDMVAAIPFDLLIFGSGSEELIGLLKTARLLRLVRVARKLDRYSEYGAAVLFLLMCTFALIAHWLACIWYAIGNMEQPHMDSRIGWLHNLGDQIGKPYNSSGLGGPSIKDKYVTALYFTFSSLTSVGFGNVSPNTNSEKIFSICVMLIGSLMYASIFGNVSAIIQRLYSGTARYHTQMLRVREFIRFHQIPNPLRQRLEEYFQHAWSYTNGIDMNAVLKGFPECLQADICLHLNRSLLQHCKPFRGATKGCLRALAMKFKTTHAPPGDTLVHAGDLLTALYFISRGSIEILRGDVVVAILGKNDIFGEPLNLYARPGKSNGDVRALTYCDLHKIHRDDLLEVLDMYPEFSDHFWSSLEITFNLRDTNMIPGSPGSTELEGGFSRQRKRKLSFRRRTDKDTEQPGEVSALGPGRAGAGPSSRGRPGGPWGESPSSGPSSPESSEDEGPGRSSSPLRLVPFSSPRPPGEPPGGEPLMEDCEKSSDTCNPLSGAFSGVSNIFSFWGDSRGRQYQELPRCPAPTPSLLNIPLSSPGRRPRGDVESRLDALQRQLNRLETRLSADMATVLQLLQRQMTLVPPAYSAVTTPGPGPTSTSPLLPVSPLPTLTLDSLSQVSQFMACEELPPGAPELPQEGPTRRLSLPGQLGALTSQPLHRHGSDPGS
T1 sequence (P54750 whole entry): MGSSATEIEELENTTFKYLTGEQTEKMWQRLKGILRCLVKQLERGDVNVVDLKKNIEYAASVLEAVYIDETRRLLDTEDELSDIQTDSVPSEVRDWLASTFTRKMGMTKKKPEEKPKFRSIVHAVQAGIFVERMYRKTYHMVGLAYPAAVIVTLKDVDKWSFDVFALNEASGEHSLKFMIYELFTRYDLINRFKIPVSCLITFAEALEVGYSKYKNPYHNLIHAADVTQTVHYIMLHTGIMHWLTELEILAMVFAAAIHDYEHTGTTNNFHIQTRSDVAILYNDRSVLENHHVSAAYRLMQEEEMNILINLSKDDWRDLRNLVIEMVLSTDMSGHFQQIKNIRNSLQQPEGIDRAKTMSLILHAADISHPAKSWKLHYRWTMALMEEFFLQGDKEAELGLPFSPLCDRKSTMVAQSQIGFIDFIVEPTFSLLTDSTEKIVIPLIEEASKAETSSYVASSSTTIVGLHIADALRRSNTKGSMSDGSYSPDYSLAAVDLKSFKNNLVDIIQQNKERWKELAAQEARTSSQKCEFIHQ

## N#Cc1ccc(Oc2ccc(B(O)O)cc2)cc1
other
  melting point: 194 to 198 °C

## COCc1nc2c([nH]1)c(=O)n(C)c(=O)n2CC(C)C [8-methoxymethyl-IBMX, reference compound]
[1]
  IC50: 1000 to 10000 nM

## Cc1ccc([N+](=O)[O-])cc1S(=O)(=O)N(C)C [BRL-50481, reference compound]
[2]
  IC50: 1000 to 10000 nM

## N#Cc1ccc(Oc2ccc3c(c2)COB3O)cc1C#N [C27, 5-(3,4-Dicyanophenoxy)-1,3-dihydro-1-hydroxy-2,1-benzoxaborole]
[3]; [29]
  inhibition in vivo at 1 mg: 60 to 90%
[3]; 3 mg/ear × 2 topical, vehicle not given, ear swelling 6 hours after PMA
  inhibition in vivo at 3 mg: 60 to 90%
[4]; topical, 24 h
  inhibition in vivo at 3 mg: 40 to 60%
[5]
  hERG inhibition: no significant
[6]; Homo sapiens, PBMCs stimulated by LPS, read-out: TNF-α secretion IC50
  IC50: 160 nM
[7]; Homo sapiens, PBMCs stimulated with PHA, read-out: IL-2 secretion IC50
  IC50: 180 nM
[8]; Homo sapiens, PBMCs stimulated with PHA, read-out: IFN-γ secretion IC50
  IC50: 220 nM
[9]
  IC50: 60 nM
[10]
  inhibition of PMA induced ear edema: 82%
[10]; ointment vehicle
  lowest active concentration in PMA ear edema model: 0.01%
[11]
  inhibition of oxazolone induced ear swelling: significantly inhibits
[12]
  p450 enzyme inhibition: no significant
[13]; intravenous dosing at 20 mg/kg
  mean plasma residence time: 0.64 h
[13]; plasma, oral dosing at 100 mg/kg
  bioavailability: 7%
[14]
  concentration at 24 h: < 10 ng/mL
[15]
  dermal irritation: no dermal irritation
[16]
  cytotoxicity: > 100 micro M
[17]
  cytotoxicity: > 100 micro M
[18]
  Cmax: 12400 ng/mL

## COc1ccc([C@]2(C#N)CC[C@@H](C(=O)O)CC2)cc1OC1CCCC1 [Cilomilast]
[6]; [30]
  IC50: < 1000 nM
[19]
  IC50: > 30000 nM
[7]; [31]
  IC50: < 1000 nM
[8]; [32]
  IC50: < 1000 nM
[20]
  IC50: < 1000 nM
[21]
  IC50: 1000 to 10000 nM

## O=C1CCc2cc(OCCCCc3nnnn3C3CCCCC3)ccc2N1 [Cilostazol, cilostazol, reference compound]
[22]
  IC50: 1000 to 10000 nM

## CCOC(=O)c1ccc(Oc2ccc3c(c2)COB3O)cc1OC [D35, 4-(1-Hydroxy-1,3-dihydro-benzo[c][1,2]oxaborol-5-yloxy)-2-methoxy-benzoic acid ethyl ester]
[23]
  IC50: < 1000 nM
[24]
  IC50: < 1000 nM
[25]
  IC50: < 1000 nM
[26]
  IC50: < 1000 nM
other
  melting point: 64.9 to 65.2 °C

## COc1cc(Oc2ccc3c(c2)COB3O)ccc1C(=O)O [D36, 4-(1-Hydroxy-1,3-dihydro-benzo[c][1,2]oxaborol-5-yloxy)-2-methoxy-benzoic acid]
[23]
  IC50: > 10000 nM
[24]
  IC50: > 10000 nM
[25]
  IC50: > 10000 nM
other
  melting point: 109.6 to 110.1 °C

## COC(=O)c1ccc(Oc2ccc3c(c2)COB3O)nc1C(=O)OC [D44, 6-(1-Hydroxy-1,3-dihydro-benzo[c][1,2]oxaborol-5-yloxy)-pyridine-2,3-dicarboxylic acid dimethyl ester]
[23]
  IC50: < 1000 nM
[24]
  IC50: < 1000 nM
[25]
  IC50: < 1000 nM
[26]
  IC50: < 1000 nM
other
  melting point: 67.5 to 69.2 °C

## CCOC(=O)c1nc(Oc2ccc3c(c2)COB3O)ccc1C#N [D45, 3-Cyano-6-(1-hydroxy-1,3-dihydro-benzo[c][1,2]oxaborol-5-yloxy)-pyridine-2-carboxylic acid ethyl ester]
[23]
  IC50: < 1000 nM
[24]
  IC50: < 1000 nM
[25]
  IC50: < 1000 nM
[26]
  IC50: < 1000 nM
other
  melting point: 204 to 206 °C

## CCOC(=O)c1ccc(Oc2ccc3c(c2)COB3O)nc1 [D60, Ethyl 6-(1-hydroxy-1,3-dihydrobenzo[c][1,2]oxaborol-5-yloxy)nicotinate]
[23]
  IC50: < 1000 nM
[24]
  IC50: < 1000 nM
[25]
  IC50: < 1000 nM
[27]
  IC50: < 1000 nM
[28]
  IC50: < 1000 nM
[26]
  IC50: < 1000 nM
[3]; 0.1 mg/ear × 2 topical, Acetone:Ethanol/1:1, ear swelling 6 hours after PMA
  inhibition in vivo at 0.1 mg: < 30%
[3]; 0.2 mg/ear × 2 topical, Acetone:Ethanol/1:1, ear swelling 6 hours after PMA
  inhibition in vivo at 0.2 mg: < 30%
[3]; Acetone:Ethanol/1:1, ear swelling 6 hours after PMA
  inhibition in vivo at 1 mg: 30 to 60%
[4]; 0.1 mg/ear × 2 topical, Acetone:Ethanol/1:1, ear thickness 24 hours after second oxazolone application
  inhibition in vivo at 0.1 mg: < 20%
[4]; 0.2 mg/ear × 2 topical, Acetone:Ethanol/1:1, ear thickness 24 hours after second oxazolone application
  inhibition in vivo at 0.2 mg: < 20%
[4]; 1 mg/ear × 2 topical, Acetone:Ethanol/1:1, ear thickness 24 hours after second oxazolone application
  inhibition in vivo at 1 mg: < 20%
other
  melting point: 110 to 113 °C

## COc1ccc(C2CNC(=O)C2)cc1OC1CCCC1 (centres unmarked) [Rolipram, rolipram, reference compound]
[23]
  IC50: < 1000 nM
[24]
  IC50: < 1000 nM
[25]
  IC50: < 1000 nM
[27]
  IC50: < 1000 nM
[28]
  IC50: < 1000 nM
[6]; [30]
  IC50: < 1000 nM
[19]
  IC50: > 30000 nM
[7]; [31]
  IC50: < 1000 nM
[8]; [32]
  IC50: < 1000 nM
[20]
  IC50: < 1000 nM
[21]
  IC50: < 1000 nM

## C[C@@H]1C[C@H]2[C@@H]3CCC4=CC(=O)C=C[C@]4(C)[C@@]3(F)[C@@H](O)C[C@]2(C)[C@@]1(O)C(=O)CO [dexamethasone, reference compound]
[3]; [29]
  inhibition in vivo at 1 mg: 60 to 90%
[10]
  inhibition of PMA induced ear edema: 73%
